Experimental findings from ChEMBL document CHEMBL1134048, “Novel antitumor artemisinin derivatives targeting G1 phase of the cell cycle” (Bioorg Med Chem Lett, 2001) are described below.

SMILES strings stand for the structures.

Experiment [1] relates to P388. Briefly: Percent of cells in G1 phase of cell cycle was determined after 21 hrs of incubation of P388 cells. It is filed as functional, Mus musculus.
Experiment [2] has as its system A549. Briefly: In vitro inhibitory concentration required against human lung A549 carcinoma cells proliferation. The class given is functional, cell-based.
Experiment [3] has as its system P388. The experiment in a line: Ability to induce apoptosis after 21 hrs of incubation of P388 cells. It is filed as functional, cell-based. Particulars: Mus musculus.
Experiment [4] relates to P388. Briefly: Percent of cells in sub-G1 phase (apoptotic cells) of cell cycle was determined after 21 hrs of incubation of P388 cells. It is filed as functional, Mus musculus.
Experiment [5] deals with P388. Briefly: In vitro inhibitory concentration required against murine P388 leukemic cells proliferation. The class given is functional, cell-based. The conditions noted are these: Mus musculus.
Experiment [6] deals with NIH3T3. The experiment in a line: In vitro inhibitory concentration required against NIH3T3 cells proliferation. Particulars: Mus musculus. It is filed as functional, cell-based.
In experiment [7] the test system is P388. Briefly: Percent of cells in G1 phase of cell cycle, was determined after 21 hrs of incubation of P388 cells. It is filed as functional, Mus musculus.

As to `C[C@@H]1CCC2[C@@H](C)[C@@H](O[C@H](C#N)c3ccccc3)O[C@@H]3O[C@]4(C)CCC1[C@@]23OO4` (stereo partly specified), the G1 in experiment [1] worked out at 61%. Also, the IC50 – broadly, the concentration needed to halve the response being measured – in experiment [2] was 0.662 µM; in experiment [5], 0.048 µM. Moreover, the Concentration in experiment [3] stood at 100 nM. This compound also yielded an Apoptosis in experiment [4] of 45%.
Turning to `C[C@@H]1CCC2[C@@H](C)[C@@H](O[C@@H](C#N)c3ccc(Br)cc3)O[C@@H]3O[C@]4(C)CCC1[C@@]23OO4` (stereo partly specified), the IC50 in experiment [2] was found to be 0.047 µM; in experiment [6], 3050 µM; in experiment [5] it was 0.012 µM. Besides, the Concentration in experiment [3] is 25 nM. The G1 in experiment [7] is listed as 62%. The compound further registered an Apoptosis in experiment [4] of 49%.
As to `C[C@@H]1CCC2[C@@H](C)[C@@H](O[C@@H](C#N)c3ccccc3)O[C@@H]3O[C@]4(C)CCC1[C@@]23OO4` (stereo partly specified), the IC50 in experiment [2] was 1.23 µM; in experiment [5], 0.238 µM. The Concentration in experiment [3] is 500 nM. In experiment [7], the G1 amounted to 67%. The same compound yielded an Apoptosis in experiment [4] of 53%.
Regarding `C[C@@H]1CCC2[C@@H](C)[C@@H](O[C@H](C#N)c3ccc(Br)cc3)O[C@@H]3O[C@]4(C)CCC1[C@@]23OO4` (stereo partly specified), the IC50 in experiment [2] is 0.039 µM; in experiment [6] it was 5120 µM; in experiment [5], 0.011 µM. This compound came in with a Concentration in experiment [3] of 25 nM. This compound gave a G1 in experiment [7] of 63%. In experiment [4], the Apoptosis was 51%.
Turning to `C[C@@H]1CCC2[C@@H](C)[C@@H](OCC#N)O[C@@H]3O[C@]4(C)CCC1[C@@]23OO4` (stereo partly specified), the IC50 in experiment [2] came to 79.4 µM; in experiment [5], 1.85 µM. Also, in experiment [3], the Concentration was 10000 nM. The G1 in experiment [7] is reported as 65%. Further, the Apoptosis in experiment [4] stood at 7%.
On to `C[C@@H]1CCC2[C@@H](C)[C@@H](OC(C#N)c3ccc(Br)cc3)O[C@@H]3O[C@]4(C)CCC1[C@@]23O4` (stereo partly specified), for which the results for the IC50 in experiment [2] and in experiment [5] were 42 µM and 24.2 µM, respectively.
As for `CC[C@]1(O)C[C@H]2CN(CCc3c([nH]c4ccccc34)[C@@](C(=O)OC)(c3cc4c(cc3OC)N(C=O)[C@H]3[C@@](O)(C(=O)OC)[C@H](OC(C)=O)[C@]5(CC)C=CCN6CC[C@]43[C@@H]65)C2)C1` [VINCRISTINE], the IC50 in experiment [2] turned out to be 0.018 µM; in experiment [5] it was 0.002 µM.
